Assay results reported in US8809536B2, “2,3-dihydrobenzo[1,4] dioxin-2-ylmethyl derivatives as alpha2C antagonists for use in the treatment of peripheric and central nervous system diseases” (Orion Corporation, priority 2007, dated 2014).

How the values were obtained:
[1] = target: T1, human alpha2A receptors (Homo sapiens, UniProt P08913); assay: Determination of alpha2A antagonistic activity in vitro (intracellular calcium, FLIPR Calcium 3 Assay, FLEXstation); format: cell-based; settings: CHO cells stably transfected with human alpha2A receptor and Gα16; stimulated with 100 nM adrenaline or 200 nM noradrenaline
T1 construct: host or cells: CHO cells, cotransfected with expression vector pCEP-Galpha16
T1 sequence (P08913 1-465): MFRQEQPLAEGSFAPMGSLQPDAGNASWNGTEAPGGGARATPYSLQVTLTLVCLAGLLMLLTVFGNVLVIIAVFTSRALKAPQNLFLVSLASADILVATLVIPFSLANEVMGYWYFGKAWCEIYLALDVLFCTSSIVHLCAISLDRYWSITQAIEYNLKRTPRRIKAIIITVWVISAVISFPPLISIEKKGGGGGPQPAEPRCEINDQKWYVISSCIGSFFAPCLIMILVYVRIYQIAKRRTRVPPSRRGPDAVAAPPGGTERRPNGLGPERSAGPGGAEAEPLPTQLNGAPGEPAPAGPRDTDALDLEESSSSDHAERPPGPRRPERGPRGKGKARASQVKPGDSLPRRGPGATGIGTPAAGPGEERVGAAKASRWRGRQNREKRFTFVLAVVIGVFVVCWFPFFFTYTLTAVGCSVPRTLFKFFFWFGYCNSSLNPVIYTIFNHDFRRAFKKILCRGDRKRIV
Protocol: (§1) Chinese hamster ovary (CHO) cells stably transfected with human alpha2A and alpha2C or rodent alpha2D receptors (University of Turku, Finland) were cotransfected with the expression vector pCEP-Gα16 (Molecular Devices, CA, USA) and CHO cells stably transfected with human adrenergic alpha2B receptors and mitochondrially targeted aequorin (Euroscreen, Belgium) were used in this experiment. The cells were maintained at 37° C. in a 5% CO2/95% air atmosphere. The cells were cultured in HAM F-12 medium supplemented with 10% FCS, 25 mM HEPES, 100 IU/ml penicillin, 100 μg/ml streptomycin, 500 μg/ml geneticin and 240 μg/ml hygromycin B. The cells were subcultured twice weekly with 0.25% trypsin and 1 mM EDTA. The subculture ratio was 1:5-1:20. The growth medium was changed every 2 or 3 days. All cell culture reagents were from Gibco. The day before the experiment the cells were plated into black-walled, clear bottom 96-well plates at a density of 30,000-45,000 cells/well.
(§2) The growth medium was removed and the cells were incubated with the test compounds and the FLIPR Calcium 3 Assay reagent (Molecular Devices, CA, USA) for 1 h at 37° C. in dark. The test compounds (concentrations in cells 100 pM-10 μM) were dissolved in Probenecid-Ringer consisting of 150 mM NaCl, 3 mM KCl, 1.2 mM MgCl2, 1 mM CaCl2, 5 mM glucose, 20 mM HEPES and 2.5 mM probenecid (pH 7.4 adjusted with 1.0 M NaOH). The osmolarity was adjusted to 322 milliosmoles with Osmostat® OM-6020 osmometer (DIC Kyoto Daiichi Kagagu Co. Ltd, Japan). […] All experiments were performed at 37° C. The test compounds dissolved in Probenecid-Ringer were applied by FLEX station at 17 s time point. […] In order to determine antagonism, the cells were stimulated either with 100 nM adrenaline or 200 nM noradrenaline and the test compounds were added to the cells at least 5 min before the experiment. Typically, there were four replicates at each concentration and seven different dose levels. For example, if the number of plates from which results were obtained was three, 84 (4*7*3) wells were thus measured to construct dose-response relationship. The samples were excited at 485 nm and emission was detected at 525 nm with a 515 nm cut-off filter. Reading time was 60 s per well and the photomultiplier sensitivity value was set to 15. The minimum fluorescence value subtracted from the maximum value for each well was used in the calculations. SOFTmax PRO version 3.2 software was used for analyzing the results. Fitting of the antagonist dose-response results was performed with the free Hill equation and the IC50 values were fitted with Michaelis-Menten equation in Sigma Plot 8.0.

[2] = target: T2, human alpha2C receptors (Homo sapiens, UniProt P18825); assay: Determination of alpha2C antagonistic activity in vitro (intracellular calcium, FLIPR Calcium 3 Assay, FLEXstation); format: cell-based; settings: CHO cells stably transfected with human alpha2C receptor and Gα16; stimulated with 100 nM adrenaline or 200 nM noradrenaline
T2 construct: host or cells: CHO cells, cotransfected with expression vector pCEP-Galpha16
T2 sequence (P18825 1-462): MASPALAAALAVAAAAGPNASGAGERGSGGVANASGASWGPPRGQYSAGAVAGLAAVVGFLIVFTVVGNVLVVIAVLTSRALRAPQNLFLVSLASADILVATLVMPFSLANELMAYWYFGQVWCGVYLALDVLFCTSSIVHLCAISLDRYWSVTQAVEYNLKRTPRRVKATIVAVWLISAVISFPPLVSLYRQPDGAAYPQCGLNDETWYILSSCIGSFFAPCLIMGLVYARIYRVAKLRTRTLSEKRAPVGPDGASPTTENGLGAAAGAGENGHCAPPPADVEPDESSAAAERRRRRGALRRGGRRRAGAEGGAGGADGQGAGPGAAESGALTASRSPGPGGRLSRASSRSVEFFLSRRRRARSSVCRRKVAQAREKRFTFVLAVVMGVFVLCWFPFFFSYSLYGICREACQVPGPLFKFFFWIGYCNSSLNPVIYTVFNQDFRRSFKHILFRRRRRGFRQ
Protocol: as §1, §2

Compound | IC50 [1] | IC50 [2]
Fc1ccc(C2CCCN(C[C@H]3COc4ccccc4O3)C2)cc1 (stereo in doubt) [Example 18, (R*)-1-[(S)-1-(2,3-Dihydrobenzo[1,4]dioxin-2-yl)methyl]-3-(4-fluorophenyl)piperidine] | > 10000 nM | 69.5 nM
OCc1cccc(C2CCCN(C[C@H]3COc4ccccc4O3)C2)c1 (stereo in doubt) [Example 29, (3-{(R*)-1-[(S)-1-(2,3-Dihydrobenzo[1,4]dioxin-2-yl)methyl]piperidin-3-yl}phenyl)methanol] | 4360 nM | 5.4 nM
c1ccc(C2CCCN(CC3COc4ccccc4O3)C2)cc1 (stereo not drawn) [Example 2, 1-(2,3-Dihydrobenzo[1,4]dioxin-2-ylmethyl)-3-phenylpiperidine] | 3780 nM | 11.4 nM
Oc1ccccc1C1CCCN(CC2COc3ccccc3O2)C1 (stereo not drawn) [Example 12, 2-[1-(2,3-Dihydrobenzo[1,4]dioxin-2-ylmethyl)piperidin-3-yl]phenol] | 374 nM | 19.6 nM
c1ccc2c(c1)OCC(CN1CCC3CCCCC3C1)O2 (stereo not drawn) [Example 48, 2-(2,3-Dihydrobenzo[1,4]dioxin-2-ylmethyl)decahydroisoquinoline] | 1470 nM | 7.4 nM
COC(C)(C)C1(C)CCCN(CC2COc3ccccc3O2)C1 (stereo not drawn) [Example 58, 1-(2,3-Dihydrobenzo[1,4]dioxin-2-ylmethyl)-3-(1-methoxy-1-methylethyl)-3-methylpiperidine] | 776 nM | 9.5 nM
CC1(COS(C)(=O)=O)CCCN(CC2COc3ccccc3O2)C1 (stereo not drawn) [Example 61, Methanesulfonic acid 1-(2,3-dihydrobenzo[1,4]dioxin-2-ylmethyl)-3-methylpiperidin-3-ylmethyl ester] | 2870 nM | 2.4 nM
CCC1(COC)CCCN(CC2COc3ccccc3O2)C1 (stereo not drawn) [Example 63, 1-(2,3-Dihydrobenzo[1,4]dioxin-2-ylmethyl)-3-ethyl-3-methoxymethylpiperidine] | 2730 nM | 0.8 nM
C=CCOCC1(C)CCCN(CC2COc3ccccc3O2)C1 (stereo not drawn) [Example 69, 3-Allyloxymethyl-1-(2,3-dihydrobenzo[1,4]dioxin-2-ylmethyl)-3-methyl-piperidine] | 1290 nM | 1.7 nM
C=CCC1(CO)CCCN(CC2COc3ccccc3O2)C1 (stereo not drawn) [Example 71, [3-Allyl-1-(2,3-dihydrobenzo[1,4]dioxin-2-ylmethyl)piperidin-3-yl]methanol] | 1150 nM | 1.1 nM
C=CCC1(COC)CCCN(CC2COc3ccccc3O2)C1 (stereo not drawn) [Example 72, 3-Allyl-1-(2,3-dihydrobenzo[1,4]dioxin-2-ylmethyl)-3-methoxymethylpiperidine] | 635 nM | 0.9 nM
CC1(COCC(F)(F)F)CCCN(CC2COc3ccccc3O2)C1 (stereo not drawn) [Example 74, 1-(2,3-Dihydrobenzo[1,4]dioxin-2-ylmethyl)-3-methyl-3-(2,2,2-trifluoroethoxymethyl)-piperidine] | 346 nM | 7.4 nM
C[C@]1(C(=O)O)CCCN(C[C@H]2COc3ccccc3O2)C1 [Example 86, Lithium (S)-1-[(S)-1-(2,3-dihydrobenzo[1,4]dioxin-2-yl)methyl]-3-methyl-piperidine-3-carboxylate] | 8420 nM | 10.7 nM
C[C@]1(COCCO)CCCN(C[C@H]2COc3ccccc3O2)C1 [Example 89, 2-{(S)-1-[(S)-1-(2,3-Dihydrobenzo[1,4]dioxin-2-yl)methyl]-3-methylpiperidin-3-ylmethoxy}-ethanol D-tartrate] | 2140 nM | 0.6 nM
C[C@]1(COCC(=O)O)CCCN(C[C@H]2COc3ccccc3O2)C1 [Example 96, Sodium {(S)-1-[(S)-1-(2,3-dihydrobenzo[1,4]dioxin-2-yl)methyl]-3-methylpiperidin-3-yl-methoxy}acetate] | 5440 nM | 4.6 nM
